The term IC50 denotes the concentration at which inhibition is half-maximal.

Sequence of KRAS (aa 1-169) G12C, C51S, C80L, C118S (P01116 other isoform, or with tags, fused parts or gaps G12C/C51S/C80L/C118S): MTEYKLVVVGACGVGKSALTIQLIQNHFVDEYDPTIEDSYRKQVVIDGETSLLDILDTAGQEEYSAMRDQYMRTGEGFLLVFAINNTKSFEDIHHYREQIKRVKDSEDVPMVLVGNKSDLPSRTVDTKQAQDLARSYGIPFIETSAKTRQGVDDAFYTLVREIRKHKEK

The first experiment has as its target KRAS (aa 1-169) G12C, C51S, C80L, C118S (Homo sapiens (Human), UniProt P01116, C118S/C51S/C80L/G12C). Put plainly: KRAS G12C SOS1-mediated nucleotide exchange / cRaf RBD binding FRET assay (Biochemical Functional Assay). The note with it: GDP-loaded KRAS G12C pre-incubated with compound at 24° C. for 3 hrs; SOS1, GTPγS, GST-cRaf RBD; inhibition of nucleotide exchange. Here is the method: The KRAS ([…]) G12C, C51S, C80L, C118S with a His-tag was expressed, purified and loaded with GDP in house. All protein and substrate solutions were prepared in assay buffer containing 25 mM HEPES pH7.5, 10 mM MgCl2, and 0.01% Triton X-100. Purified GDP-loaded KRAS (aa 1-169) G12C, C51S, C80L, C118S protein was pre-incubated with a serially diluted compound at 24° C. for 3 hrs. Purified SOS1 (aa 564-1049) protein, GTPYS (Sigma) and GST-cRaf RBD (aa 1-149) were then added to each well and incubated at 24° C. for additional 3 hrs. […] Following the incubation, Mab Anti-6HIS-Tb cryptate (Cisbio) and Mab Anti GST-XL665 (Cisbio) were added and further incubated at 24° C. for 3 hrs. The binding interaction between active GTPγS KRAS G12C and GST-cRaf RBD brings the Tb and XL665 into close proximity enabling an increased FRET signal (Ex337 nm, Em665 nm/620 nm). The inhibition percentage of nucleotide exchange reaction in presence of increasing concentrations of compounds was calculated based on the ratio of fluorescence at 665 nm to that at 620 nm detected on a BMG PHERAstar FSX instrument. The IC50 value of each compound was calculated from fitting the data to the four-parameter logistic model by Dotmatics.
For `C=CC(=O)N1CCN(c2nc(OC[C@@H]3CCCN3C)nn3c(Cc4cc(O)cc5ccccc45)cnc23)C[C@@H]1CC#N` [Compound A5, 2-((S)-1-acryloyl-4-(7-((3-hydroxynaphthalen-1-yl)methyl)-2-(((S)-1-methylpyrrolidin-2-yl)methoxy)imidazo[2,1-f][1,2,4]triazin-4-yl)piperazin-2-yl)acetonitrile], the IC50 worked out at 0.029 µM.

Regarding `C=CC(=O)N1CCN(c2nc(OC[C@@H]3CCCN3C)nn3c(Cc4cccc5[nH]ncc45)cnc23)C[C@@H]1CC#N` [Compound A15, 2-((S)-4-(7-((1H-indazol-4-yl)methyl)-2-(((S)-1-methylpyrrolidin-2-yl)methoxy)imidazo[2,1-f][1,2,4]triazin-4-yl)-1-acryloylpiperazin-2-yl)acetonitrile], the IC50 came to 1.18 µM. Still for that read-out and setting: with `C=CC(=O)N1CCN(c2nc(OC[C@@H]3CCCN3C)nn3c(Cc4ccc5ccccc5c4)cnc23)C[C@@H]1CC#N` [Compound A8, 2-((S)-1-acryloyl-4-(2-(((S)-1-methylpyrrolidin-2-yl)methoxy)-7-(naphthalen-2-ylmethyl)imidazo[2,1-f][1,2,4]triazin-4-yl)piperazin-2-yl)acetonitrile] the figure was 7.7 µM; with `C=CC(=O)N1CCN(c2nc(OC[C@@H]3CCCN3C)nn3c(Cc4cccc5ccccc45)cnc23)[C@@H](C)C1` [Compound A17, 1-((S)-3-methyl-4-(2-(((S)-1-methylpyrrolidin-2-yl)methoxy)-7-(naphthalen-1-ylmethyl)imidazo[2,1-f][1,2,4]triazin-4-yl)piperazin-1-yl)prop-2-en-1-one], 2.93 µM; with `C=CC(=O)N1CCN(c2nc(OC[C@@H]3CC(F)(F)CN3C)nn3c(Cc4cccc5ccccc45)cnc23)C[C@@H]1CC#N` [Compound A14, 2-((S)-1-acryloyl-4-(2-(((S)-4,4-difluoro-1-methylpyrrolidin-2-yl)methoxy)-7-(naphthalen-1-ylmethyl)imidazo[2,1-f][1,2,4]triazin-4-yl)piperazin-2-yl)acetonitrile], 0.506 µM. On the same count and under the same terms, with `C=CC(=O)N1CCN(c2nc(OC[C@@H]3CCCN3C)nn3c(Cc4cccc5ccccc45)cnc23)C[C@@H]1CC#N` [Compound A4, 2-((S)-1-acryloyl-4-(2-(((S)-1-methylpyrrolidin-2-yl)methoxy)-7-(naphthalen-1-ylmethyl)imidazo[2,1-f][1,2,4]triazin-4-yl)piperazin-2-yl)acetonitrile] the figure was 0.0467 µM. Still for that read-out and setting: in the case of `C=CC(=O)N1CCN(c2nc(OC[C@@H]3CCCN3C)nn3c(Cc4cccc5ccccc45)cnc23)CC1` [Compound A1, (S)-1-(4-(2-((1-methylpyrrolidin-2-yl)methoxy)-7-(naphthalen-1-ylmethyl)imidazo[2,1-f][1,2,4]triazin-4-yl)piperazin-1-yl)prop-2-en-1-one] it was 3.28 µM; in that of `C=CC(=O)N1CCN(c2nc(OC[C@@H]3CCCN3C)nn3c(C(=O)c4cccc5ccccc45)cnc23)C[C@@H]1CC#N` [Compound A23, 2-((S)-4-(7-(1-naphthoyl)-2-(((S)-1-methylpyrrolidin-2-yl)methoxy)imidazo[2,1-f][1,2,4]triazin-4-yl)-1-acryloylpiperazin-2-yl)acetonitrile], 0.489 µM. As for `C=CC(=O)N1CCN(c2nc(OC[C@@H]3CCCN3C)nn3c(C4CCc5ccccc54)cnc23)C[C@@H]1CC#N` (stereo partly drawn) [Compound A22, 2-((2S)-1-acryloyl-4-(7-(2,3-dihydro-1H-inden-1-yl)-2-(((S)-1-methylpyrrolidin-2-yl)methoxy)imidazo[2,1-f][1,2,4]triazin-4-yl)piperazin-2-yl)acetonitrile], the IC50 is 0.201 µM. Still for that read-out and setting: in the case of `C=CC(=O)N1CCN(c2nc(OC[C@@H]3CCCN3C)nn3c(Cc4cc(O)cc5ccccc45)cnc23)CC1` [Compound A2, (S)-1-(4-(7-((3-hydroxynaphthalen-1-yl)methyl)-2-((1-methylpyrrolidin-2-yl)methoxy)imidazo[2,1-f][1,2,4]triazin-4-yl)piperazin-1-yl)prop-2-en-1-one] it was 0.427 µM; in that of `C=C(F)C(=O)N1CCN(c2nc(OC[C@@H]3CCCN3C)nc3c(Cc4c(Cl)c(F)cc5[nH]ncc45)c[nH]c23)C[C@@H]1CC#N` [Compound B6, 2-((S)-4-(7-((5-chloro-6-fluoro-1H-indazol-4-yl)methyl)-2-(((S)-1-methylpyrrolidin-2-yl)methoxy)-5H-pyrrolo[3,2-d]pyrimidin-4-yl)-1-(2-fluoroacryloyl)piperazin-2-yl)acetonitrile], 0.639 µM. The same measure, in the same setting: in the case of `C=CC(=O)N1CCN(c2nc(OC[C@@H]3CCCN3C)nn3c(Cc4ccccc4C(F)(F)F)cnc23)C[C@@H]1CC#N` [Compound A18, 2-((S)-1-acryloyl-4-(2-(((S)-1-methylpyrrolidin-2-yl)methoxy)-7-(2-(trifluoromethyl)benzyl)imidazo[2,1-f][1,2,4]triazin-4-yl)piperazin-2-yl)acetonitrile] it was 0.235 µM.

On to `C=CC(=O)N1CCN(c2nc(OC[C@@H]3CCCN3C)nc3c(Cc4cc(O)cc5ccccc45)cn(CC)c23)C[C@@H]1CC#N` [Compound B2, 2-((S)-1-acryloyl-4-(5-ethyl-7-((3-hydroxynaphthalen-1-yl)methyl)-2-(((S)-1-methylpyrrolidin-2-yl)methoxy)-5H-pyrrolo[3,2-d]pyrimidin-4-yl)piperazin-2-yl)acetonitrile], for which the IC50 was found to be 0.013 µM. The same measure, in the same setting: in the case of `C=CC(=O)N1CCN(c2nc(OC[C@@H]3CCCN3C)nn3c(Cc4cccc5c4OCC5)cnc23)C[C@@H]1CC#N` [Compound A13, 2-((S)-1-acryloyl-4-(7-((2,3-dihydrobenzofuran-7-yl)methyl)-2-(((S)-1-methylpyrrolidin-2-yl)methoxy)imidazo[2,1-f][1,2,4]triazin-4-yl)piperazin-2-yl)acetonitrile] it was 0.101 µM; in that of `C=CC(=O)N1CCN(c2nc(OC[C@@H]3CCCN3C)nc3c(Cc4c(C(F)(F)F)ccc5[nH]ncc45)c[nH]c23)C[C@@H]1CC#N` [Compound B5, 2-((S)-1-acryloyl-4-(2-(((S)-1-methylpyrrolidin-2-yl)methoxy)-7-((5-(trifluoromethyl)-1H-indazol-4-yl)methyl)-5H-pyrrolo[3,2-d]pyrimidin-4-yl)piperazin-2-yl)acetonitrile], 0.0641 µM. On the same count and under the same terms, with `C=CC(=O)N1CCN(c2nc(OC[C@@H]3CCCN3C)nn3c(Cc4ccc(OC)c5ccccc45)cnc23)C[C@@H]1CC#N` [Compound A10, 2-((S)-1-acryloyl-4-(7-((4-methoxynaphthalen-1-yl)methyl)-2-(((S)-1-methylpyrrolidin-2-yl)methoxy)imidazo[2,1-f][1,2,4]triazin-4-yl)piperazin-2-yl)acetonitrile] the figure was 0.187 µM; with `C=CC(=O)N1CCN(c2nc(OC[C@@H]3CCCN3C)nn3c(Cc4cccc5c4CCO5)cnc23)C[C@@H]1CC#N` [Compound A9, 2-((S)-1-acryloyl-4-(7-((2,3-dihydrobenzofuran-4-yl)methyl)-2-(((S)-1-methylpyrrolidin-2-yl)methoxy)imidazo[2,1-f][1,2,4]triazin-4-yl)piperazin-2-yl)acetonitrile], 1.06 µM. As to `C=CC(=O)N1CCN(c2nc(OC[C@@H]3CCCN3C)nc3c(Cc4cc(O)cc5ccccc45)cn(C)c23)C[C@@H]1CC#N` [Compound B1, 2-((S)-1-acryloyl-4-(7-((3-hydroxynaphthalen-1-yl)methyl)-5-methyl-2-(((S)-1-methylpyrrolidin-2-yl)methoxy)-5H-pyrrolo[3,2-d]pyrimidin-4-yl)piperazin-2-yl)acetonitrile], the IC50 amounted to 0.0062 µM.

For the compound `C=CC(=O)N1CCN(c2nc(OC[C@@H]3CCCN3C)nn3c(Cc4c(O)ccc5ccccc45)cnc23)C[C@@H]1CC#N` [Compound A21, 2-((S)-1-acryloyl-4-(7-((2-hydroxynaphthalen-1-yl)methyl)-2-(((S)-1-methylpyrrolidin-2-yl)methoxy)imidazo[2,1-f][1,2,4]triazin-4-yl)piperazin-2-yl)acetonitrile], the IC50 was 0.0208 µM.

In the case of `C=CC(=O)N1CCN(c2nc(OC[C@@H]3CCCN3C)nn3c(Cc4c(O)cccc4F)cnc23)C[C@@H]1CC#N` [Compound A20, 2-((S)-1-acryloyl-4-(7-(2-fluoro-6-hydroxybenzyl)-2-(((S)-1-methylpyrrolidin-2-yl)methoxy)imidazo[2,1-f][1,2,4]triazin-4-yl)piperazin-2-yl)acetonitrile], the IC50 is 0.0191 µM. Turning to `C=CC(=O)N1CCN(c2nc(OC[C@@H]3CCCN3C)nn3c(Cc4cccc5cccc(Cl)c45)cnc23)C[C@@H]1CC#N` [Compound A6, 2-((S)-1-acryloyl-4-(7-((8-chloronaphthalen-1-yl)methyl)-2-(((S)-1-methylpyrrolidin-2-yl)methoxy)imidazo[2,1-f][1,2,4]triazin-4-yl)piperazin-2-yl)acetonitrile], the IC50 came to 0.1 µM.

The experiment is the same for the next values; noted with them: same assay; the cell prints uM although the column head says nmol.
In turn, `C=CC(=O)N1CCN(c2nc(OC[C@@H]3CCCN3C)nn3c(Cc4cccc5[nH]ncc45)cnc23)C[C@@H]1CC(N)=O` [Compound A16, 2-((S)-4-(7-((1H-indazol-4-yl)methyl)-2-(((S)-1-methylpyrrolidin-2-yl)methoxy)imidazo[2,1-f][1,2,4]triazin-4-yl)-1-acryloylpiperazin-2-yl)acetamide] returned an IC50 greater than 10 µM.
